Source: ChEMBL document CHEMBL1687743, “Intravenous doripenem at 500 milligrams versus levofloxacin at 250 milligrams, with an option to switch to oral therapy, for treatment of complicated lower urinary tract infection and pyelonephritis” (Antimicrob Agents Chemother, 2009)
≈ marks a conversion by molar mass, not a printed value.

Legend:
Enterococcus faecalis = test: Antibacterial activity against Enterococcus faecalis; format: functional
Enterococcus faecium = test: Antibacterial activity against Enterococcus faecium; format: functional
Staphylococcus aureus = test: Antibacterial activity against Staphylococcus aureus; format: functional
Escherichia coli [1] = test: Antibacterial activity against Escherichia coli infected in microbiologically evaluable patient with UTI assessed as cure rate at 500 mg, iv administered every 8 hrs for 10 days measured at test-of-cure visit; format: functional
Escherichia coli [2] = test: Antibacterial activity against levofloxacin-resistant Escherichia coli infected in microbiologically evaluable patient with UTI assessed as cure rate at 500 mg, iv administered every 8 hrs for 10 days measured at test-of-cure visit; format: functional
Escherichia coli [3] = test: Antibacterial activity against levofloxacin-resistant Escherichia coli infected in clinically evaluable patient with UTI assessed as cure rate at 500 mg, iv administered every 8 hrs for 10 days measured at test-of-cure visit; format: functional
Klebsiella pneumoniae = test: Antibacterial activity against Klebsiella pneumoniae infected in microbiologically evaluable patient with UTI assessed as cure rate at 500 mg, iv administered every 8 hrs for 10 days measured at test-of-cure visit; format: functional
Proteus mirabilis = test: Antibacterial activity against Proteus mirabilis infected in microbiologically evaluable patient with UTI assessed as cure rate at 500 mg, iv administered every 8 hrs for 10 days measured at test-of-cure visit; format: functional
Escherichia coli [4] = test: Antibacterial activity against Escherichia coli isolated from patient with urinary tract infection receiving drug at 500 mg, iv administered every 8 hrs for 10 days measured after post drug therapy; format: functional; conditions: Urine
Serratia marcescens = test: Antibacterial activity against Serratia marcescens isolated from patient with urinary tract infection receiving drug at 500 mg, iv administered every 8 hrs for 10 days measured after post drug therapy; format: functional; conditions: Urine
Enterococcus avium = test: Antibacterial activity against doripenem-resistant Enterococcus avium; format: functional
Homo sapiens [5] = test: Treatment emergent adverse event in intent-to-treat patient with complicated urinary tract infection assessed as headache at 500 […], iv administered every 8 hrs for 10 days; format: ADME, organism-based, Urine; set-up: route intravenous; conditions: in vivo
Homo sapiens [6] = test: Treatment emergent adverse event in intent-to-treat patient with complicated urinary tract infection assessed as constipation at 500 […], iv administered every 8 hrs for 10 days; format: ADME, organism-based; set-up: route intravenous; conditions: in vivo
Homo sapiens [7] = test: Treatment emergent adverse event in intent-to-treat patient with complicated urinary tract infection assessed as diarrhea at 500 […], iv administered every 8 hrs for 10 days; format: ADME, organism-based; set-up: route intravenous; conditions: in vivo
Homo sapiens [8] = test: Treatment emergent adverse event in intent-to-treat patient with complicated urinary tract infection assessed as vomiting at 500 […], iv administered every 8 hrs for 10 days; format: organism-based; set-up: route intravenous; conditions: in vivo
Homo sapiens [9] = test: Treatment emergent adverse event in intent-to-treat patient with complicated urinary tract infection assessed as upper abdominal pain at 500 […], iv administered every 8 hrs for 10 days; format: organism-based; set-up: route intravenous; conditions: in vivo
Homo sapiens [10] = test: Treatment emergent adverse event in intent-to-treat patient with complicated urinary tract infection assessed as nausea at 500 […], iv administered every 8 hrs for 10 days; format: organism-based; set-up: route intravenous; conditions: in vivo
Homo sapiens [11] = test: Treatment emergent adverse event in intent-to-treat patient with complicated urinary tract infection assessed as phlebitis at 500 […], iv administered every 8 hrs for 10 days; format: organism-based; set-up: route intravenous; conditions: in vivo
Homo sapiens [12] = test: Treatment emergent adverse event in intent-to-treat patient with complicated urinary tract infection assessed as insomnia at 500 […], iv administered every 8 hrs for 10 days; format: ADME, organism-based, Urine; set-up: route intravenous; conditions: in vivo
Homo sapiens [13] = test: Treatment emergent adverse event in intent-to-treat patient with complicated urinary tract infection assessed as urinary tract infection at 500 […], iv administered every 8 hrs for 10 days; format: ADME, organism-based, Urine; set-up: route intravenous; conditions: in vivo
Homo sapiens [14] = test: Treatment emergent adverse event in intent-to-treat patient with complicated urinary tract infection assessed as asymptomatic bacteriuria at 500 […], iv administered every 8 hrs for 10 days; format: ADME, organism-based, Urine; set-up: route intravenous; conditions: in vivo
Homo sapiens [15] = test: Treatment emergent adverse event in intent-to-treat patient with complicated urinary tract infection assessed as back pain at 500 […], iv administered every 8 hrs for 10 days; format: organism-based; set-up: route intravenous; conditions: in vivo
Homo sapiens [16] = test: Treatment emergent adverse event in intent-to-treat patient with complicated urinary tract infection assessed as hypokalemia at 500 […], iv administered every 8 hrs for 10 days; format: ADME, organism-based, Urine; set-up: route intravenous; conditions: in vivo
Homo sapiens [17] = test: Treatment emergent adverse event in intent-to-treat patient with complicated urinary tract infection assessed as abdominal pain at 500 […], iv administered every 8 hrs for 10 days; format: ADME, organism-based, Urine; set-up: route intravenous; conditions: in vivo
Homo sapiens [18] = test: Treatment emergent adverse event in intent-to-treat patient with complicated urinary tract infection assessed as >=1 adverse event at 500 mg/kg, iv administered every 8 hrs for 10 days; format: organism-based, Urine; set-up: dose 500 mg/kg, route intravenous; conditions: in vivo
Homo sapiens [19] = test: Drug related treatment emergent adverse event in intent-to-treat patient with complicated urinary tract infection assessed as >=1 adverse event at 500 mg/kg, iv administered every 8 hrs for 10 days; format: toxicity, organism-based, Urine; set-up: dose 500 mg/kg, route intravenous; conditions: in vivo
Homo sapiens [20] = test: Drug related treatment emergent adverse event in intent-to-treat patient with complicated urinary tract infection assessed as headache at 500 […], iv administered every 8 hrs for 10 days; format: toxicity, organism-based, Urine; set-up: dose 500 […], route intravenous; conditions: in vivo
Homo sapiens [21] = test: Drug related treatment emergent adverse event in intent-to-treat patient with complicated urinary tract infection assessed as diarrhea at 500 […], iv administered every 8 hrs for 10 days; format: toxicity, organism-based; set-up: dose 500 […], route intravenous; conditions: in vivo
Homo sapiens [22] = test: Drug related treatment emergent adverse event in intent-to-treat patient with complicated urinary tract infection assessed as upper abdominal pain at 500 […], iv administered every 8 hrs for 10 days; format: toxicity, organism-based; set-up: dose 500 […], route intravenous; conditions: in vivo
Homo sapiens [23] = test: Drug related treatment emergent adverse event in intent-to-treat patient with complicated urinary tract infection assessed as nausea at 500 […], iv administered every 8 hrs for 10 days; format: toxicity, organism-based; set-up: dose 500 […], route intravenous; conditions: in vivo
Homo sapiens [24] = test: Drug related treatment emergent adverse event in intent-to-treat patient with complicated urinary tract infection assessed as phlebitis at 500 […], iv administered every 8 hrs for 10 days; format: toxicity, organism-based, Urine; set-up: dose 500 […], route intravenous; conditions: in vivo

For `C[C@@H](O)[C@H]1C(=O)N2C(C(=O)O)=C(S[C@@H]3CN[C@H](CNS(N)(=O)=O)C3)[C@H](C)[C@H]12` [DORIPENEM], which MIC (Enterococcus faecalis) is on record?
Its MIC is no less than 16 mg/L.

What about the MIC (Enterococcus faecium) of the same compound?
The MIC was no less than 16 mg/L.

And the MIC (Staphylococcus aureus)?
Its MIC is no less than 16 mg/L.

And the Activity (Escherichia coli [1])?
Its Activity is 84.4%.

And the Activity (Escherichia coli [2])?
Its Activity is 55%.

What about the Activity (Escherichia coli [3]) of the same compound?
The Activity was 86%.

What about the Activity (Klebsiella pneumoniae) of the same compound?
The Activity was 83.3%.

And the Activity (Proteus mirabilis)?
Its Activity is 69.6%.

And the MIC (Escherichia coli [4])?
Its MIC is 0.06 mg/L (≈ 0.143 µM).

And the MIC (Serratia marcescens)?
The MIC was 0.5 mg/L (≈ 1.19 µM).

And the MIC (Enterococcus avium)?
Its MIC is 128 mg/L (≈ 304 µM).

And the Activity (Homo sapiens [5])?
Its Activity is 15.7%.

And the Activity (Homo sapiens [6])?
Its Activity is 5.9%.

What about the Activity (Homo sapiens [7]) of the same compound?
Its Activity is 5.6%.

And the Activity (Homo sapiens [8])?
The Activity was 5.1%.

And the Activity (Homo sapiens [9])?
Its Activity is 4.5%.

What about the Activity (Homo sapiens [10]) of the same compound?
The Activity was 4.3%.

And the Activity (Homo sapiens [11])?
Its Activity is 3.7%.

And the Activity (Homo sapiens [12])?
Its Activity is 3.7%.

And the Activity (Homo sapiens [13])?
The Activity was 3.7%.

What about the Activity (Homo sapiens [14]) of the same compound?
Its Activity is 3.7%.

And the Activity (Homo sapiens [15])?
The Activity was 2.1%.

What about the Activity (Homo sapiens [16]) of the same compound?
The Activity was 2.1%.

What about the Activity (Homo sapiens [17]) of the same compound?
Its Activity is 1.9%.

And the Activity (Homo sapiens [18])?
Its Activity is 64%.

And the Activity (Homo sapiens [19])?
The Activity was 28.2%.

What about the Activity (Homo sapiens [20]) of the same compound?
Its Activity is 4.5%.

What about the Activity (Homo sapiens [21]) of the same compound?
Its Activity is 4%.

And the Activity (Homo sapiens [22])?
Its Activity is 0.5%.

And the Activity (Homo sapiens [23])?
Its Activity is 2.9%.

And the Activity (Homo sapiens [24])?
The Activity was 2.4%.
